Assay results published in ChEMBL document CHEMBL1143607, “Pyridinium-1-yl bisphosphonates are potent inhibitors of farnesyl diphosphate synthase and bone resorption” (J Med Chem, 2005).

Assays:
Mus musculus = species on record: Mus musculus; experiment: In vitro inhibitory concentration against bone resorption in 17 day old fetal mouse metatarsals; format: functional
[1] = Effective concentration against human Gamma delta T cells; format: functional, cell-based; conditions: t-cell
Dictyostelium discoideum = experiment: Inhibitory concentration against Dictyostelium discoideum cell growth; format: functional, organism-based, Fungi

Compound	IC50 (Mus musculus) [µM]	EC50 [1] [µM]	IC50 (Dictyostelium discoideum) [µM]
NCCCC(O)(P(=O)(O)O)P(=O)(O)O [ALENDRONIC ACID]	0.29	32	–
O=P([O-])(O)C(O)(C[n+]1ccccc1)P(=O)(O)O (stereo unspecified)	0.67	4.8	2.1
CCCCc1ccc[n+](CC(O)(P(=O)([O-])O)P(=O)(O)O)c1 (stereo unspecified)	–	4.3	2.9
NCCC(O)(P(=O)(O)O)P(=O)(O)O [PAMIDRONIC ACID]	1.6	43	–
O=P([O-])(O)C(O)(C[n+]1cccc2cc(Cl)ccc21)P(=O)(O)O (stereo unspecified)	–	56	72
O=P([O-])(O)C(O)(C[n+]1cccc(-c2ccc(O)cc2)c1)P(=O)(O)O (stereo unspecified)	–	2.5	2.9
Nc1c[n+](CC(P(=O)([O-])O)P(=O)(O)O)ccn1 (stereo unspecified)	0.22	–	–
O=P(O)(O)C(O)(Cn1ccnc1)P(=O)(O)O [ZOLEDRONIC ACID]	0.034	5.4	2.9
CCc1ccc[n+](CC(O)(P(=O)([O-])O)P(=O)(O)O)c1 (stereo unspecified)	–	4.4	5.6
O=P([O-])(O)C(O)(C[n+]1ccc(Cc2ccccc2)cc1)P(=O)(O)O (stereo unspecified)	–	150	12
O=P([O-])(O)C(O)(C[n+]1cccc(Cc2ccccc2)c1)P(=O)(O)O (stereo unspecified)	–	91	11
O=P([O-])(O)C(O)(C[n+]1cccc(F)c1)P(=O)(O)O (stereo unspecified)	0.075	2.7	4.6
COc1ccc[n+](CC(O)(P(=O)([O-])O)P(=O)(O)O)c1 (stereo unspecified)	0.37	9.3	6
Cc1ccc[n+](CC(O)(P(=O)([O-])O)P(=O)(O)O)c1 (stereo unspecified)	0.22	4.5	1.5
O=P([O-])(O)C(O)(C[n+]1cccc(-c2ccccc2)c1)P(=O)(O)O (stereo unspecified)	0.41	4.1	3.8
O=P([O-])(O)C(O)(C[n+]1ccc2ccccc2c1)P(=O)(O)O (stereo unspecified)	–	30	20
O=P(O)(O)C(O)(Cc1cccnc1)P(=O)(O)O [RISEDRONIC ACID]	0.3	5	–
Cc1cccc(Cc2ccc[n+](CC(O)(P(=O)([O-])O)P(=O)(O)O)c2)c1 (stereo unspecified)	–	44	9.2
